Test results as given in publication PMC12440775 (Frontiers in Pharmacology, 2025).
“Also recorded” adds a separate entry of the source. Marks after values point to notes of the source that are not given here.

Experiments:
[1] = Safety and tolerability, single ascending dose (Part 1); assay type: in vivo, human; conditions: for Abdominal pain / Diarrhea / Dizziness / Flatulence / Gastrointestinal disorders / Headache / Hepatobiliary disorders / Hyperbilirubinemia / Jaundice / Nausea / Nervous system disorders / Retching / Subjects with any AE / Vomiting: 6 subjects
Procedure: Six volunteers received the active drug at each dose level dissolved in a polyethylene glycol (PEG)/tromethamine (TRIS)/meglumine solution, and two received a placebo. One dose level was tested within each group. Subject groups were dosed and evaluated sequentially, beginning with the lowest-dose group and proceeding stepwise to the highest-dose group. The next higher dose was administered only if no safety concerns arose during treatment of the preceding group.
Safety was assessed throughout the study by monitoring changes in clinical laboratory parameters (e.g., serum biochemistry, hematology, and urinalysis), 12-lead electrocardiograms, or vital signs (blood pressure, pulse rate, and temperature measurements); monitoring for occurrence of AEs); and carrying out physical examinations.

[2] = system: HCV; design: method as in Ferenci et al., 2015; conditions: in combination with PegIFN and RBV, treatment-naïve patients; ref Ferenci et al., 2015; cited from earlier work

For `C=C[C@@H]1C[C@]1(NC(=O)[C@@H]1C[C@@H](Oc2cc(-c3csc(NC(=O)C(C)C)n3)nc3c(Br)c(OC)ccc23)CN1C(=O)[C@@H](NC(=O)OC1CCCC1)C(C)(C)C)C(=O)O` [FDV, Faldaprevir], the “Subjects with increases in total bilirubin” value (“Subjects with increases” for short) ([1]; 120 mg, Part 1) was “two subjects”, the “Subjects with increases” value ([1]; 240 mg, Part 1) was “three subjects” and the “Subjects with increases” value ([1]; 480 mg, Part 1) was “five subjects”. The “Subjects with increases” value ([1]; 800 mg, Part 1) was “six subjects”, the “Subjects with increases” value ([1]; 1,200 mg, Part 1) was “six subjects” and the “Subjects with marked hyperbilirubinemia / indirect (unconjugated) bilirubin >3.0 mg/dL” value ([1]; 480-mg group, Part 1) was “two subjects”. The “Subjects with marked hyperbilirubinemia / indirect (unconjugated) bilirubin >3.0 mg/dL” value ([1]; 1,200-mg group, Part 1) was “five subjects”, the Abdominal pain ([1]; FDV 4 mg) was 0 n (%) and the Diarrhea ([1]; FDV 4 mg) was 0 n (%). The Dizziness ([1]; FDV 4 mg) was 0 n (%), the Flatulence ([1]; FDV 4 mg) was 0 n (%) and the Gastrointestinal disorders ([1]; FDV 4 mg) was 1 (16.7) n (%). For the same molecule, the Headache ([1]; FDV 4 mg) was 1 (16.7) n (%), the Hepatobiliary disorders ([1]; FDV 4 mg) was 0 n (%) and the Hyperbilirubinemia ([1]; FDV 4 mg) was 0 n (%). The Jaundice ([1]; FDV 4 mg) was 0 n (%), the Nausea ([1]; FDV 4 mg) was 1 (16.7) n (%) and the Nervous system disorders ([1]; FDV 4 mg) was 1 (16.7) n (%). The Retching ([1]; FDV 4 mg) was 0 n (%), the “Subjects with any AE” value ([1]; FDV 4 mg) was 1 (16.7) n (%) and the Vomiting ([1]; FDV 4 mg) was 0 n (%). For the same molecule, the Abdominal pain ([1]; FDV 16 mg) was 0 n (%), the Diarrhea ([1]; FDV 16 mg) was 0 n (%) and the Dizziness ([1]; FDV 16 mg) was 0 n (%). For the same molecule, the Flatulence ([1]; FDV 16 mg) was 0 n (%), the Gastrointestinal disorders ([1]; FDV 16 mg) was 0 n (%) and the Headache ([1]; FDV 16 mg) was 0 n (%). For the same molecule, the Hepatobiliary disorders ([1]; FDV 16 mg) was 0 n (%), the Hyperbilirubinemia ([1]; FDV 16 mg) was 0 n (%) and the Jaundice ([1]; FDV 16 mg) was 0 n (%). The Nausea ([1]; FDV 16 mg) was 0 n (%), the Nervous system disorders ([1]; FDV 16 mg) was 0 n (%) and the Retching ([1]; FDV 16 mg) was 0 n (%). For the same molecule, the “Subjects with any AE” value ([1]; FDV 16 mg) was 0 n (%), the Vomiting ([1]; FDV 16 mg) was 0 n (%) and the Abdominal pain ([1]; FDV 48 mg) was 0 n (%). The Diarrhea ([1]; FDV 48 mg) was 0 n (%), the Dizziness ([1]; FDV 48 mg) was 1 (16.7) n (%) and the Flatulence ([1]; FDV 48 mg) was 0 n (%). For the same molecule, the Gastrointestinal disorders ([1]; FDV 48 mg) was 0 n (%), the Headache ([1]; FDV 48 mg) was 1 (16.7) n (%) and the Hepatobiliary disorders ([1]; FDV 48 mg) was 0 n (%). For the same molecule, the Hyperbilirubinemia ([1]; FDV 48 mg) was 0 n (%), the Jaundice ([1]; FDV 48 mg) was 0 n (%) and the Nausea ([1]; FDV 48 mg) was 0 n (%). For the same molecule, the Nervous system disorders ([1]; FDV 48 mg) was 1 (16.7) n (%), the Retching ([1]; FDV 48 mg) was 0 n (%) and the “Subjects with any AE” value ([1]; FDV 48 mg) was 3 (50.0) n (%). The Vomiting ([1]; FDV 48 mg) was 0 n (%), the Abdominal pain ([1]; FDV 120 mg) was 0 n (%) and the Diarrhea ([1]; FDV 120 mg) was 1 (16.7) n (%). For the same molecule, the Dizziness ([1]; FDV 120 mg) was 0 n (%), the Flatulence ([1]; FDV 120 mg) was 0 n (%) and the Gastrointestinal disorders ([1]; FDV 120 mg) was 1 (16.7) n (%). For the same molecule, the Headache ([1]; FDV 120 mg) was 0 n (%), the Hepatobiliary disorders ([1]; FDV 120 mg) was 0 n (%) and the Hyperbilirubinemia ([1]; FDV 120 mg) was 0 n (%). For the same molecule, the Jaundice ([1]; FDV 120 mg) was 0 n (%), the Nausea ([1]; FDV 120 mg) was 0 n (%) and the Nervous system disorders ([1]; FDV 120 mg) was 0 n (%). For the same molecule, the Retching ([1]; FDV 120 mg) was 0 n (%), the “Subjects with any AE” value ([1]; FDV 120 mg) was 1 (16.7) n (%) and the Vomiting ([1]; FDV 120 mg) was 0 n (%). The Abdominal pain ([1]; FDV 240 mg) was 1 (16.7) n (%), the Diarrhea ([1]; FDV 240 mg) was 0 n (%) and the Dizziness ([1]; FDV 240 mg) was 0 n (%). The Flatulence ([1]; FDV 240 mg) was 0 n (%), the Gastrointestinal disorders ([1]; FDV 240 mg) was 2 (33.3) n (%) and the Headache ([1]; FDV 240 mg) was 2 (33.3) n (%). The Hepatobiliary disorders ([1]; FDV 240 mg) was 0 n (%), the Hyperbilirubinemia ([1]; FDV 240 mg) was 0 n (%) and the Jaundice ([1]; FDV 240 mg) was 0 n (%). The Nausea ([1]; FDV 240 mg) was 1 (16.7) n (%), the Nervous system disorders ([1]; FDV 240 mg) was 2 (33.3) n (%) and the Retching ([1]; FDV 240 mg) was 0 n (%). The “Subjects with any AE” value ([1]; FDV 240 mg) was 5 (83.3) n (%), the Vomiting ([1]; FDV 240 mg) was 1 (16.7) n (%) and the Abdominal pain ([1]; FDV 480 mg) was 0 n (%). For the same molecule, the Diarrhea ([1]; FDV 480 mg) was 3 (50.0) n (%), the Dizziness ([1]; FDV 480 mg) was 1 (16.7) n (%) and the Flatulence ([1]; FDV 480 mg) was 1 (16.7) n (%). The Gastrointestinal disorders ([1]; FDV 480 mg) was 4 (66.7) n (%), the Headache ([1]; FDV 480 mg) was 3 (50.0) n (%) and the Hepatobiliary disorders ([1]; FDV 480 mg) was 2 (33.3) n (%). The Hyperbilirubinemia ([1]; FDV 480 mg) was 2 (33.3) n (%), the Jaundice ([1]; FDV 480 mg) was 0 n (%) and the Nausea ([1]; FDV 480 mg) was 2 (33.3) n (%). The Nervous system disorders ([1]; FDV 480 mg) was 4 (66.7) n (%), the Retching ([1]; FDV 480 mg) was 2 (33.3) n (%) and the “Subjects with any AE” value ([1]; FDV 480 mg) was 6 (100) n (%). For the same molecule, the Vomiting ([1]; FDV 480 mg) was 1 (16.7) n (%), the Abdominal pain ([1]; FDV 800 mg) was 1 (16.7) n (%) and the Diarrhea ([1]; FDV 800 mg) was 4 (66.7) n (%). The Dizziness ([1]; FDV 800 mg) was 1 (16.7) n (%), the Flatulence ([1]; FDV 800 mg) was 0 n (%) and the Gastrointestinal disorders ([1]; FDV 800 mg) was 4 (66.7) n (%). The Headache ([1]; FDV 800 mg) was 1 (16.7) n (%), the Hepatobiliary disorders ([1]; FDV 800 mg) was 0 n (%) and the Hyperbilirubinemia ([1]; FDV 800 mg) was 0 n (%). For the same molecule, the Jaundice ([1]; FDV 800 mg) was 0 n (%), the Nausea ([1]; FDV 800 mg) was 1 (16.7) n (%) and the Nervous system disorders ([1]; FDV 800 mg) was 1 (16.7) n (%). The Retching ([1]; FDV 800 mg) was 0 n (%), the “Subjects with any AE” value ([1]; FDV 800 mg) was 4 (66.7) n (%) and the Vomiting ([1]; FDV 800 mg) was 0 n (%). For the same molecule, the Abdominal pain ([1]; FDV 1,200 mg) was 0 n (%), the Diarrhea ([1]; FDV 1,200 mg) was 3 (50.0) n (%) and the Dizziness ([1]; FDV 1,200 mg) was 1 (16.7) n (%). For the same molecule, the Flatulence ([1]; FDV 1,200 mg) was 1 (16.7) n (%), the Gastrointestinal disorders ([1]; FDV 1,200 mg) was 4 (66.7) n (%) and the Headache ([1]; FDV 1,200 mg) was 0 n (%). For the same molecule, the Hepatobiliary disorders ([1]; FDV 1,200 mg) was 5 (83.3) n (%), the Hyperbilirubinemia ([1]; FDV 1,200 mg) was 5 (83.3) n (%) and the Nausea ([1]; FDV 1,200 mg) was 1 (16.7) n (%). For the same molecule, the Nervous system disorders ([1]; FDV 1,200 mg) was 1 (16.7) n (%), the Retching ([1]; FDV 1,200 mg) was 1 (16.7) n (%) and the “Subjects with any AE” value ([1]; FDV 1,200 mg) was 6 (100) n (%). The Vomiting ([1]; FDV 1,200 mg) was 0 n (%), the Jaundice ([1]; FDV 1,200 mg, mild transient jaundice of the skin and sclera) was 1 (16.7) ^b n (%) and the Severe vomiting ([1]; FDV 240-mg dose group) was “one subject”. For the same molecule, the “Subjects with an AE after treatment with FDV” value ([1]; Part 1, all FDV dose groups) was 26 subjects out of 48, the “Subjects with AEs with a possible relationship to the study drug according to the investigator” value ([1]; Part 1, receiving FDV) was 19 subjects and the “Subjects with marked hyperbilirubinemia (>3.0 mg/dL)” value ([1]; all dose groups, Part 1) was “seven subjects”. The “Serious AEs” value ([1]; during the study (both parts)) was “no serious AEs were reported; also recorded: No serious AEs occurred”, the Tolerability ([1]; oral solution, single doses 4–1,200 mg) was “generally well tolerated” and the “Changes in alanine transaminase, hemoglobin, or neutrophil count” value ([1]; subjects with hyperbilirubinemia or elevated total bilirubin) was “no clinically relevant changes”. For the same molecule, the “Changes in vital signs, ECGs, or medical examinations” value ([1]; whole study) was “No clinically relevant changes”, the “Subjects with slight elevations of direct bilirubin” value ([1]; whole study, groups not specified) was 14 subjects and the “Sustained virologic response (SVR) rate” value [2] was “up to 84%”.
